As a reminder, the IC50 is the concentration that gives 50% inhibition. A high value points to a need for much substance.

Test [1] addresses T1, VEGFR2 intracellular domain protein (Homo sapiens, UniProt P35968).
T1 construct: made in house; host or cells: SF-21 insect cells, recombinant baculovirus BAC-VEGFR2
As to the kind of experiment: Determination of vascular endothelial growth factor receptor 2 (VEGFR2) kinase inhibitory activity (AlphaScreen). The format is biochemical. To be noted: read-out: VEGFR2 kinase inhibitory rate. On the procedure: Human vascular endothelial growth factor receptor 2 (hereinafter to be referred to as VEGFR2) gene was cloned by PCR using cDNA Libraries Human Placenta (Clontech) as a template. The primer used for PCR was prepared from base sequence (Genbank Accession AF035121) information of VEGFR2 gene by adding a base sequence encoding flag peptide and a recognition sequence of the restriction enzyme to a base sequence (2671-4374 of Genbank Accession AF035121) encoding the VEGFR2 intracellular domain region, so that the protein contains an N-terminal Flag tag. The primer base sequence is shown below.
SF-21 cells were sown at 1×10^6 cells/mL to Sf-900II SFM medium (1 L, Invitrogen) containing 10% fetal bovine serum (trace), 50 mg/L Gentamicin (Invitrogen) and 0.1% Pluronic F-68 (Invitrogen), and shaking culture was performed using a 2 L volume Erlenmeyer flask at 27° C., 100 rpm. After culturing for 24 hrs, recombinant baculovirus BAC-VEGFR2 (13.4 mL) was added to the mixture, and the mixture was further cultured for 3 days. The culture medium was centrifuged at 2,000 rpm for 5 min to give virus-infected cells. The infected cells were washed with a phosphate buffered saline (Invitrogen), centrifuged under the same conditions, and the cells were preserved at −80° C. The cryopreserved cells were thawed in ice, suspended in buffer A (50 mM Tris buffer (30 mL, pH 7.4) containing 20% glycerol, 0.15 M NaCl) supplemented with Complete Protease Inhibitor (Boehringer), and ruptured 3 times with a Polytron homogenizer (Kinematica) at 20,000 rpm for 30 sec. The ruptured medium was clarified by centrifugation at 40,000 rpm for 30 min and filtered with a 0.45 μm filter. The filtrate was passed through a column packed with Anti-FLAG M2 Affinity Gel (4 mL, Sigma) at a flow rate of about 0.5 mL/min. The column was washed with buffer A, and eluted with buffer A containing 100 μg/mL of FLAG peptide. The eluate was concentrated with Vivaspin 20 (Vivascience) having a molecular weight cut off of 30K. The buffer of this concentrate was exchanged using NAP™ 25 column (Amersham Bioscience) equilibrated with buffer A. The fractions containing intracellular domain protein of VEGFR2 were collected, glycerol was added to the final concentration of 50% and cryopreserved at −80° C.
A test compound dissolved in dimethyl sulfoxide (DMSO) was diluted with a buffer (50 mM Tris-HCl (pH 7.5), 5 mM MgCl2, 5 mM MnCl2, 2 mM dithiothreitol, 0.01% Tween-20). To this compound solution (5 μL) was added a buffer (10 μL) containing 50 ng/mL of VEGFR2 intracellular domain protein and 250 ng/mL of biotin labeled polypeptide biotinyl-poly-Glu:Tyr (4:1) (CIS bio International). To the obtained mixture was added a buffer (10 μL) containing ATP (25 μM), the mixture was allowed to react at 25° C. for 5 min and the reaction was quenched with 25 μL of a stop solution (100 mM EDTA disodium salt, 62.5 mM HEPES buffer (pH 7.4), 250 mM NaCl, 0.1% bovine serum albumin, 10 μg/mL AlphaScreen assay streptavidin donor beads (Streptavidin Donor beads: PerkinElmer), 10 μg/mL AlphaScreen assay anti-phosphotyrosine recognition antibody PY-100 binding acceptor beads (Anti-phosphotyrosine (P-Tyr-100) Acceptor beads: PerkinElmer)). The reaction solution was allowed to stand at 25° C. for 16 hrs, and the wells were counted using a plate reader Fusion™ (PerkinElmer). The kinase inhibitory rate (%) of the test compound was calculated by the following formula: Inhibitory rate(%)=(1−(count of test compound−blank)÷(control−blank))×100
A general note: In Alpha technology, singlet oxygen from a donor bead excites a nearby acceptor bead.

In test [2] the test system is Human umbilical vein-derived vascular endothelial cells (HUVEC). As to the kind of experiment: Vascular endothelial cell growth inhibitory test (VEGF-stimulated HUVEC, XTT). To be noted: 120 h, 5 days of culture. The format is cell-based. The procedure: To be specific, HUVEC was suspended in a vascular endothelial cell medium containing the aforementioned 5% bovine fetal serum and plated on a 96 well flat bottom plate by 50 μL (3000 cells) each well. After culture overnight, various concentrations of the test substance and 120 ng/mL of vascular endothelial growth factor (VEGF) were dissolved in a vascular endothelial cell medium containing 5% bovine fetal serum and added to each well by 50 μL. After 5 days of culture, a XTT reagent (Wako Pure Chemical Industries, Ltd.) was added to each well by 10 μL, and the mixture was reacted in an incubator at 37° C., 5% carbon dioxide for 2-3 hr. The absorbance at 450 nm was measured by a microtiter plate reader and the cell growth inhibitory activity was determined.

In test [3] the target is T2, PDGFRα intracellular domain protein (Homo sapiens, UniProt P16234).
T2 construct: 125 ng/ml of PDGFRα intracellular domain protein (UPSTATE); purchased UPSTATE
T2 sequence (P16234 550-1089 limits assumed): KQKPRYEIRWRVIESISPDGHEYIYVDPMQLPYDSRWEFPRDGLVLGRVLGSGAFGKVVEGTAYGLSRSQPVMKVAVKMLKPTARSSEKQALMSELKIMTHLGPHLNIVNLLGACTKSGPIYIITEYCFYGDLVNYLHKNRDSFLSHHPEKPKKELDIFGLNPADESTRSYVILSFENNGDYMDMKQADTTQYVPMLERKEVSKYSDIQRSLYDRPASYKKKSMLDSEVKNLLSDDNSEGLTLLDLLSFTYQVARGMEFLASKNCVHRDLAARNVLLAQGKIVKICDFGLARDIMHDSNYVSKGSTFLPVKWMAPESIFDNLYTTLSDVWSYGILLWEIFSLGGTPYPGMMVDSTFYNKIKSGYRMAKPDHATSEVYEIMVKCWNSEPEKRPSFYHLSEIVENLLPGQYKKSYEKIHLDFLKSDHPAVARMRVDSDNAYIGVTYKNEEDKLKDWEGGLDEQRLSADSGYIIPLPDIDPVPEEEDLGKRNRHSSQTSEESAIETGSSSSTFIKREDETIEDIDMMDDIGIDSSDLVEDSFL
As to the kind of experiment: Determination of platelet-derived growth factor receptor α (PDGFRα) kinase inhibitory activity (AlphaScreen). The format is biochemical. On the procedure:
(§1) A test compound dissolved in dimethyl sulfoxide (DMSO) was diluted with a buffer (50 mM Tris-HCl (pH 7.5), 5 mM MgCl2, 5 mM MnCl2, 2 mM dithiothreitol, 0.01% Tween-20). To this compound solution (5 μL) was added a buffer (10 μL) containing 125 ng/ml of PDGFRα intracellular domain protein (UPSTATE) and 250 ng/mL of biotin labeled polypeptide biotinyl-poly-Glu:Tyr (4:1) (CIS bio International). At 5 min after mixing kinase enzyme and the compound and biotin labeled polypeptide, to the obtained mixture was added a buffer (10 μL) containing ATP (25 μM), the mixture was allowed to react at 25° C. for 30 min and the reaction was quenched with 25 μL of a stop solution (100 mM EDTA disodium salt, 62.5 mM HEPES buffer (pH 7.4), 250 mM NaCl, 0.1% bovine serum albumin, 10 μg/mL AlphaScreen assay streptavidin donor beads (Streptavidin Donor beads: PerkinElmer), 10 μg/mL AlphaScreen assay anti-phosphotyrosine recognition antibody PT-66 binding acceptor beads (Anti-phosphotyrosine (P-Tyr-66) Acceptor beads: PerkinElmer)). The reaction solution was allowed to stand at 25° C. for 16 hrs, and the wells were counted using a plate reader Fusion™ (PerkinElmer). The kinase inhibitory rate (%) of the test compound was calculated by the following formula: Inhibitory rate(%)=(1−(count of test compound−blank)÷(control−blank))×100
(§2) The count of the solution reacted without addition of the compound was used as a “control”, and the count of the solution without the compound and ATP was used as a “blank”.

Test [4] concerns the target T3, PDGFRβ intracellular domain protein (Homo sapiens, UniProt P09619).
T3 construct: 125 ng/ml of PDGFRβ intracellular domain protein (UPSTATE); purchased UPSTATE
The experiment in a line: Determination of platelet-derived growth factor receptor β (PDGFRβ) kinase inhibitory activity (AlphaScreen). In kind it is biochemical. On the procedure: as §1, with “of PDGFRβ” for “of PDGFRα”, “Donor Beads:” for “Donor beads:”, “test compound[…])÷(control−blank))×100” for “test compound−blank)÷(control−blank))×100”
as §2

T1 sequence (P35968 786-1356 limits assumed): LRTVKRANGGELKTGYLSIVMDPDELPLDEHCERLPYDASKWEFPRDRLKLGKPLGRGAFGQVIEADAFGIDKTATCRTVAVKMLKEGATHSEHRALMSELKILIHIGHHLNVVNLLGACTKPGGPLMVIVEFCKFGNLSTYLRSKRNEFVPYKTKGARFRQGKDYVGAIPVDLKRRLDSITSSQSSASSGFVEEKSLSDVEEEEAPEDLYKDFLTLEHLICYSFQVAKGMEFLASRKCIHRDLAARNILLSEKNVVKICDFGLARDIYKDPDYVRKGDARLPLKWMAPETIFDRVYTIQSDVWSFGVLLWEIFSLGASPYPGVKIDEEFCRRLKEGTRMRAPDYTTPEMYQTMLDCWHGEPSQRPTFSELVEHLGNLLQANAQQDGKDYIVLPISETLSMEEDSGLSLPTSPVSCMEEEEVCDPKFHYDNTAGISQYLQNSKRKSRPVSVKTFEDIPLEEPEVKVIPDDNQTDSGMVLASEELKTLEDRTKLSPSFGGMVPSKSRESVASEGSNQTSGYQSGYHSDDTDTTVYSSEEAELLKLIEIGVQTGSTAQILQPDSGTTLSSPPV
T3 sequence (P09619 554-1106 limits assumed): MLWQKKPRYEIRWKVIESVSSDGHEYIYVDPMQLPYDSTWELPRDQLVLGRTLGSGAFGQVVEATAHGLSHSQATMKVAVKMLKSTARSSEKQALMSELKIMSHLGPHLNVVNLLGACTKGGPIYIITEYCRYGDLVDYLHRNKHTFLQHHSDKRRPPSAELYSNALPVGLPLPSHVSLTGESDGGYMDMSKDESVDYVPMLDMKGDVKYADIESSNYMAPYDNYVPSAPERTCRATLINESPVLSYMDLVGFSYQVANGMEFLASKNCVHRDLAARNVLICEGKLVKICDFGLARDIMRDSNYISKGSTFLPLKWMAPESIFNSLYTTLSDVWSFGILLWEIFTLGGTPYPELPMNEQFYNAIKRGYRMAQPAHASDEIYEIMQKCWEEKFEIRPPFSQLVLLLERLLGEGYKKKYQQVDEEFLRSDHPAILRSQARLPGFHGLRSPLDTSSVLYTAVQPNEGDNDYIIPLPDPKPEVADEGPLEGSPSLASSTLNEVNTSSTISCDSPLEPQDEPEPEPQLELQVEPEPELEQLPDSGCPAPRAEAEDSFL

In the case of `Cn1nccc1C(=O)Nc1cc(Oc2ccc3nc(NC(=O)C4CC4)cn3n2)ccc1F` [Example 287, N-[5-({2-[(cyclopropylcarbonyl)amino]imidazo[1,2-b]pyridazin-6-yl}oxy)-2-fluorophenyl]-1-methyl-1H-pyrazole-5-carboxamide], the inhibition at 1 µM in test [1] was ≥ 90%. Besides, the IC50 in test [2], in test [3] and in test [4] was ≤ 500 nM each time.

With `Cc1nc(C)c(C(=O)Nc2cc(Oc3ccc4nc(NC(=O)C5CC5)cn4n3)ccc2F)o1` [Example 289, N-[5-({2-[(cyclopropylcarbonyl)amino]imidazo[1,2-b]pyridazin-6-yl}oxy)-2-fluorophenyl]-2,4-dimethyl-1,3-oxazole-5-carboxamide], the inhibition at 1 µM in test [1] is ≥ 90%. Moreover, the IC50 in test [2], in test [3] and in test [4] was ≤ 500 nM each time.

Turning to `Cc1ccc(Oc2ccc3nc(NC(=O)C4CC4)cn3n2)cc1NC(=O)c1scnc1C` [Example 298, N-[5-({2-[(cyclopropylcarbonyl)amino]imidazo[1,2-b]pyridazin-6-yl}oxy)-2-methylphenyl]-4-methyl-1,3-thiazole-5-carboxamide], the inhibition at 1 µM in test [1] is ≥ 90%. The 50% inhibitory concentration (IC50) in test [2], in test [3] and in test [4] was ≤ 500 nM throughout.

On to `COc1cc(C(=O)Nc2cc(Oc3ccc4nc(NC(=O)C5CC5)cn4n3)ccc2C)n(C)n1` [Example 302, N-[5-({2-[(cyclopropylcarbonyl)amino]imidazo[1,2-b]pyridazin-6-yl}oxy)-2-methylphenyl]-3-methoxy-1-methyl-1H-pyrazole-5-carboxamide], for which the inhibition at 1 µM in test [1] is ≥ 90%. Besides, the IC50 in test [2], in test [3] and in test [4] was ≤ 500 nM each time.

In the case of `CCc1nc(C)c(C(=O)Nc2cc(Oc3ccc4nc(NC(=O)C5CC5)cn4n3)ccc2F)o1` [Example 314, N-[5-({2-[(cyclopropylcarbonyl)amino]imidazo[1,2-b]pyridazin-6-yl}oxy)-2-fluorophenyl]-2-ethyl-4-methyl-1,3-oxazole-5-carboxamide], in test [1], the inhibition at 1 µM is ≥ 90%. Moreover, the IC50 in test [2], in test [3] and in test [4] was ≤ 500 nM throughout.

For `Cc1cc(C(=O)Nc2cccc(Nc3ccc4nc(NC(=O)C5CC5)cn4n3)c2)n(C)n1` [Example 317, N-[3-({2-[(cyclopropylcarbonyl)amino]imidazo[1,2-b]pyridazin-6-yl}amino)phenyl]-1,3-dimethyl-1H-pyrazole-5-carboxamide], the inhibition at 1 µM in test [1] is ≥ 90%. In addition, the 50% inhibitory concentration (IC50) in test [2], in test [3] and in test [4] was ≤ 500 nM throughout.

Values taken from patent publication US8034812B2, “Imidazopyridazine derivative having kinase inhibitory activity and pharmaceutical agent thereof” (Takeda Pharmaceutical Company Limited, priority 2006, dated 2011).
